Data reported in patent EP1285971B1, “Methods for the phenotypic and genotypic assessment of the drug sensitivity of HIV integrase variants” (Tibotec Pharmaceuticals Ltd., priority 2001, dated 2003).
Where two headings read alike, the source gives them in different places.

Columns and labels:
[1] = system: WT III B; experiment: microbe, parasite or virus in culture; format: cell-based, HIV-1; conditions: for fold change: fold change in EC50
Method: (§1) The integrase encoding sequence was amplified from either wildtype HIV-1 (IIIB) or NL4.3 virus, or HXB2D site-directed mutant viruses containing mutations in integrase (such as T66I, S153Y, M154I, or combinations thereof) (Hazuda et al., Science 2000, 287, 646-650), or patient samples. Starting from RNA, extracted from virus supernatant or plasma using the QIAamp® viral RNA extraction kit (Qiagen), cDNA was synthesized by reverse transcription (Expand TM reverse transcriptase, 30 min at 42°C) with the primer 3'EGINT10 (SEQ ID NO 11), followed by a nested PCR. The outer PCR was performed with the primers 5'EGINT1 (SEQ ID NO 1) and 3'EGINT10 (SEQ ID NO 11) (ΔR-IN-vif construct) or 5'EGINT3 (SEQ ID NO 4) and 3'EGINT10 (SEQ ID NO 11) (ΔIN construct) (Expand™ High Fidelity PCR system), and 5 µl of the outer product was used for an inner PCR with primers 5'EGINT2 (SEQ ID NO 3) and 3'EGINT11 (SEQ ID NO 12) (ΔR-IN-vif construct) or 5'EGINT4 (SEQ ID NO 5) and 3'EGINT6 (SEQ ID NO 7) (ΔIN construct). In a second protocol the outer primers were identical as described above, the inner primers are 5'EGINT5 (SEQ ID NO 6) and 3'EGINT6 (SEQ ID NO 7). The amplicons can be used for genotyping and phenotyping. Cycling conditions for both PCRs are denaturation for 3 min at 95°C, followed by 30 cycles of 1 min 90°C, 30 sec 55°C, and 2 min 72°C. A final extension was performed at 72°C for 10 min. For recombination, PCR products are purified using the QiaQuick® 96 PCR BioRobot kit (Qiagen), according to the manufacturer's protocol. If the protocol starts from DNA containing the HIV material such as proviral DNA, the reverse transcriptase step is not needed. The nested approach is also not needed when starting from proviral DNA. The obtained amplicons were sequenced using the primers: In_seq1F (SEQ ID NO 17), In_seq2F (SEQ ID NO 18), In_seq3F (SEQ ID NO 19), IN_seq1R (SEQ ID NO 20), IN_seq2R (SEQ ID NO 21), and IN_seq3R (SEQ ID NO 22).
(§2) A ΔR-IN-vif or ΔIN deletion construct was generated by site-directed mutagenesis on the template pSV40HXB2D with the primers MUT-IN1 (SEQ ID NO 13) and MUT-IN2 (ΔR-IN-vif construct) (SEQ ID NO 14) or MUT-IN3 (SEQ ID NO 15) and MUT-IN4 (SEQ ID NO 16) (ΔIN construct) (protocol Site-directed mutagenesis kit, Stratagene). After DpnI digestion for removal of the methylated template DNA, the construct was digested with SmaI and ligated to circulize the plasmid. The plasmid was transformed into competent cells such as Top10 cells, and colonies were screened for the presence of the deletion construct. The IN-deletion construct was checked by sequence analysis with primers 5'EGINT1 (SEQ ID NO 1) or […] and 3'EGINT10 (SEQ ID NO 11) or 3'EGINT11 (SEQ ID NO 12). For use in recombination experiments, large-scale plasmid DNA preparations were linearized by SmaI digestion and recombined with PCR amplified integrase genes from wild type, mutant, or patient viruses. The plasmid containing the integrase deletion (ΔIN) has been deposited pSV40HXB2D-ΔIN. The sequence of said plasmid is 14377 nucleotides long. The ΔR-IN-vif deletion construct is 13975 nucleotides long. The pSV40HXB2D-ΔIN was deposited at the Belgian Coordinated Collections of Micro-Organisms located at the Universiteit Gent - Laboratorium voor Moleculaire Biologie on August 5, 2002 and the accession number is LMBP 4574.
(§3) Recombinant virus was produced by co-transfection by electroporation of the SmaI-linearized IN-deletion construct and the integrase amplicon into MT4 cells or MT4 cells equipped with an LTR driven reporter gene construct. Production of recombinant virus was evaluated by scoring the cytopathogenic effect (CPE) that is induced by HIV-infection of MT4 cells or by the LTR-driven reporter signal induced by HIV infection in MT4 reporter cells.

[2] = system: NL 4-3; experiment: microbe, parasite or virus in culture; format: cell-based, HIV-1; conditions: for fold change: fold change in EC50
Method: as §1, §2, §3

[3] = Human immunodeficiency virus 1, AVE 3, WT III B, primer set 3
[4] = Human immunodeficiency virus 1, AVE 5, WT III B, primer set 4
[5] = Human immunodeficiency virus 1, AVE 1, NL 4-3, primer set 3
[6] = Human immunodeficiency virus 1, NL43, AVE 4, NL4-3, primer set 4

Row | SMILES | fold change ([1]; AVE 3, WT III B, primer set 3) | fold change ([1]; AVE 5, WT III B, primer set 4) | EC50 [1, 3] [nM] | EC50 [1, 4] [nM] | fold change ([2]; AVE 1, NL 4-3, primer set 3) | fold change ([2]; AVE 4, NL4-3, primer set 4) | EC50 [2, 5] [nM] | EC50 [2, 6] [nM] | EC50 ([1]; AVE 3, WT III B, primer set 3) [nM] | EC50 ([1]; AVE 5, WT III B, primer set 4) [nM] | EC50 ([2]; AVE 1, NL 4-3, primer set 3) [nM] | EC50 ([2]; AVE 4, NL4-3, primer set 4) [nM] | EC50 ([1]; AVE 3, WT III B, primer set 3, read-out: EC 50) [nM] | EC50 ([1]; AVE 5, WT III B, primer set 4, read-out: EC 50) [nM] | EC50 ([2]; AVE 1, NL 4-3, primer set 3, read-out: EC 50) [nM] | EC50 ([2]; AVE 4, NL4-3, primer set 4, read-out: EC 50) [nM]
1 | Nc1ccn([C@@H]2CS[C@H](CO)O2)c(=O)n1 [Compound 3TC, Lamivudine] | 0,3 | 1,2 | 384 | 1690 | 0,6 | 2,0 | 820 | 2730 |  |  |  |  |  |  |  | 
2 | Cc1cc(C#N)cc(C)c1Oc1nc(Nc2ccc(C#N)cc2)nc(N)c1Br [Compound 2, 4-[[6-amino-5-bromo-2-[(4-cyanophenyl)amino]-4-pyrimidinyl]oxy]-3,5-dimethyl-Benzonitrile] | 0,9 | 0,9 |  |  | 0,8 | 0,9 |  |  | 2.8 | 2.9 | 2.6 | 2.8 |  |  |  | 
3 | Cc1ccnc2c1NC(=O)c1cccnc1N2C1CC1 [NVP, Nevirapine] | 0,8 | 1,6 | 66.2 | 134 | 1,1 | 1,7 | 97.6 | 151 |  |  |  |  |  |  |  | 
4 | CC(C)c1nc(CN(C)C(=O)N[C@H](C(=O)N[C@@H](Cc2ccccc2)C[C@H](O)[C@H](Cc2ccccc2)NC(=O)OCc2cncs2)C(C)C)cs1 [RTV, ritonavir] | 0,3 | 1,0 | 44.9 | 154 | 0,6 | 1,2 | 87.1 | 172 |  |  |  |  |  |  |  | 
5 | Cc1cc(C#N)cc(C)c1Oc1nc(Nc2ccc(C#N)cc2)nc(N)c1Br [Compound 1, 4-[[6-amino-5-bromo-2-[(4-cyanophenyl)amino]-4-pyrimidinyl]oxy]-3,5-dimethyl-benzonitrile] | 0,9 | 1,2 |  |  | 1,0 | 2,3 |  | 2.3 | 0.9 | 1.2 | 1 |  |  |  |  | 
6 | CC(C)(C)NC(=O)[C@@H]1CN(Cc2cccnc2)CCN1C[C@@H](O)C[C@@H](Cc1ccccc1)C(=O)N[C@H]1c2ccccc2C[C@H]1O [IDV, Indinavir] | 0,4 | 0,9 | 18.4 | 41.3 | 0,7 | 1,2 | 31.5 | 50.7 |  |  |  |  |  |  |  | 
7 | O=c1[nH]cnc2c1ncn2[C@H]1CC[C@@H](CO)O1 [DDI, Didanosine] | 0,5 | 1,6 | 2540 | 7500 | 0,7 | 1,6 | 3360 | 7890 |  |  |  |  |  |  |  | 
8 | Cc1cn([C@H]2C[C@H](N=[N+]=[N-])[C@@H](CO)O2)c(=O)[nH]c1=O [AZT, Zidovudine] |  | 0,9 |  | 144 | 0,9 | 1,1 | 143 | 182 |  |  |  |  |  |  |  | 
9 | CC(C)CN(C[C@@H](O)[C@H](Cc1ccccc1)NC(=O)O[C@H]1CCOC1)S(=O)(=O)c1ccc(N)cc1 [APV, Amprenavir] | 0,5 | 0,7 | 46 | 60.6 | 0,6 | 1,3 | 49.6 | 113 |  |  |  |  |  |  |  | 
10 | O=C(O)C1=CC(=C(c2ccc(O)c(C(=O)O)c2)c2ccc(O)c(C(=O)O)c2)C=CC1=O [ATA] | 0,4 | 0,4 |  |  | 0,9 | 1,2 |  |  |  |  |  |  | 730 | 861 | 1960 | 2510
11 | CC(C)(C)NC(=O)[C@@H]1C[C@@H]2CCCC[C@@H]2CN1C[C@@H](O)[C@H](Cc1ccccc1)NC(=O)[C@H](CC(N)=O)NC(=O)c1ccc2ccccc2n1 [SQV, Saquinavir] | 0,7 | 1,8 | 13 | 35.6 | 1,2 | 1,9 | 23.3 | 38.5 |  |  |  |  |  |  |  | 
12 | c1cc(CN2CCCNCCNCCCNCC2)ccc1CN1CCCNCCNCCCNCC1 [AMD3100] | 0,8 | 0,8 | 44.2 | 41.7 | 0,9 | 1,1 | 50.6 | 63 |  |  |  |  |  |  |  | 
